Common to all, as to format: biochemical
One test concerns the target T1, CDK1:Cyclin-B (Homo sapiens, UniProt P06493).
T1 construct: purchased New England Biolabs 6020; host or cells: insect cells
The test is described as follows: CDK1 Screening Assay. The settings on record: read-out: CDK1 IC50. The essentials: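 Human CDK1:cyclin-B (30 ng/well) with biotinylated histone-H1 peptide and ^33P-γ-ATP, 1 h at 30° C, 1% DMSO, on streptavidin FlashPlate; incorporation read by scintillation.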

The target in test [1] is T2, VEGF-R (vascular endothelial growth factor receptor-2) (Rattus norvegicus, UniProt O08775).
T2 construct: polyhistidine (6xHIS) (N)
T2 sequence (O08775 786-1343): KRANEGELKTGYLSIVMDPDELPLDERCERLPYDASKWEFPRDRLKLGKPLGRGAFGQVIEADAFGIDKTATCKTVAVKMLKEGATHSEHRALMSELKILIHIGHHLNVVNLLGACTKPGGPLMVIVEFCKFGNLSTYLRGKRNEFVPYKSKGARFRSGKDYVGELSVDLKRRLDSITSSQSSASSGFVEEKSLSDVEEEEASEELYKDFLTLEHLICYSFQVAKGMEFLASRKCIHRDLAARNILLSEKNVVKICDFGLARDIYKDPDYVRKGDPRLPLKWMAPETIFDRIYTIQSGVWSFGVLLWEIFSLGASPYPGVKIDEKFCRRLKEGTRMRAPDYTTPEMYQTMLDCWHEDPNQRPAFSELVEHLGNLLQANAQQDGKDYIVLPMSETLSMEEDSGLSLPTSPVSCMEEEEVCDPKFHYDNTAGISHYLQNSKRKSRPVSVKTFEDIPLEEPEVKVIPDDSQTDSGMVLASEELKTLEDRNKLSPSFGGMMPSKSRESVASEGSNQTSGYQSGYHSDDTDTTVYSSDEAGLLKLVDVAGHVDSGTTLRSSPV
Put plainly: VEGF-R Screening Assay. The note with it: read-out: VEGF-R IC50.

The target of test [2] is T3, HER2 (human epidermal growth factor receptor-2) (Homo sapiens, UniProt P04626).
T3 construct: begins at amino acid 676 followed by the remainder of the HER2 cytoplasmic domain; polyhistidine (N)
T3 sequence (P04626 676-1255 limits assumed): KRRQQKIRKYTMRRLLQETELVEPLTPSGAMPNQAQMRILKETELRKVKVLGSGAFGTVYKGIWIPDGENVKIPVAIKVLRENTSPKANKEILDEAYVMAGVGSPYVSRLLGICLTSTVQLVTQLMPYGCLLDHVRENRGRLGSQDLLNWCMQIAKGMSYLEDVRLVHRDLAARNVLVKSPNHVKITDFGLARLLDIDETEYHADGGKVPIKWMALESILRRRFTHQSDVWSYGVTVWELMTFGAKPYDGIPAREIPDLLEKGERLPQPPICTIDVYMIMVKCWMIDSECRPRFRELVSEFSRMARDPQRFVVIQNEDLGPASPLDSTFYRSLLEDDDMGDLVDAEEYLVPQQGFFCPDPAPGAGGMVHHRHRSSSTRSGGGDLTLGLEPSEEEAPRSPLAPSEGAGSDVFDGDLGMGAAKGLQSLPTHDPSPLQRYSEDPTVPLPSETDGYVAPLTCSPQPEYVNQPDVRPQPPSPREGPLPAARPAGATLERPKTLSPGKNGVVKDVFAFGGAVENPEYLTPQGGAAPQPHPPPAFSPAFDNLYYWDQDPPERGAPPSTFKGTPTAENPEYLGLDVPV
Put plainly: Kinase Selectivity Assay HER2. In a few lines:
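Inhibition was measured as reduced ^33P-γ-ATP labelling of a biotinylated peptide substrate immobilized on streptavidin plates after one hour at 30° C.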

The mark [3] stands for this setting: Kinase Selectivity, Tables 2a-2k.
[4] abbreviates: Kinase Selectivity, Tables 2a-2k, read-out: HER2 Kinase IC50.

Read-outs that look alike come from different tables or passages of the source.

T1 sequence (P06493 whole entry): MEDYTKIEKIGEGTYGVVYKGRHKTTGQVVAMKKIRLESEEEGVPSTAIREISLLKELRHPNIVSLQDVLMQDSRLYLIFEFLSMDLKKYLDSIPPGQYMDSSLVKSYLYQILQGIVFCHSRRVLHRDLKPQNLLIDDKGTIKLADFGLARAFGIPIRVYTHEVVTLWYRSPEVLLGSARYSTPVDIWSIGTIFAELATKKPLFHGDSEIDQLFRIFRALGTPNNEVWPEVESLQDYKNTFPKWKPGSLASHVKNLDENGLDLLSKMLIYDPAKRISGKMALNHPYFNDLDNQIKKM
T1 sequence (P14635 whole entry partner): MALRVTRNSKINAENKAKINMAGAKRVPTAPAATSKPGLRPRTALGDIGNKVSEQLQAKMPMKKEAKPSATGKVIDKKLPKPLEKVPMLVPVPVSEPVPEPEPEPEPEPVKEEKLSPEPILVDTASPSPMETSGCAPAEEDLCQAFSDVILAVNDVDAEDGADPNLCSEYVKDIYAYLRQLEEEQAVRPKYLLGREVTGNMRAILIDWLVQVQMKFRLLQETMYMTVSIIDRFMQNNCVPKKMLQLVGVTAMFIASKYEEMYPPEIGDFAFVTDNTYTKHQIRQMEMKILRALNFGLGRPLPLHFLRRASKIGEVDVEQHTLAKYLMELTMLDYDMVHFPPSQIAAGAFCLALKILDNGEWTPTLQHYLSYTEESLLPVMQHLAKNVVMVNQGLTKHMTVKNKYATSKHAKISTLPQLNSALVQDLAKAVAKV

On to `Cc1ccsc1C(=O)n1nc(Nc2ccc(N3CCCS3(=O)=O)cc2)nc1N` [Cpd 116, N^3-[4-(1,1-dioxido-2-isothiazolidinyl)phenyl]-1-[(3-methyl-2-thienyl)carbonyl]-1H-1,2,4-triazole-3,5-diamine], for which the concentration for half-maximal inhibition (IC50) at CDK1:Cyclin-B (setting [3]) amounted to 21 nM; at CDK1:Cyclin-B (Table 1) it was 20.8 nM; in test [1] (setting [3]), 26 nM; in test [1] (Table 1), 26.1 nM; in test [2] (setting [4]), 131 nM; in test [2] (Table 1, read-out: HER2 IC50) it was 131 nM.

Regarding `Nc1nc(Nc2ccc(S(=O)(=O)Nc3ccccn3)cc2)nn1C(=O)c1c(F)cccc1F` [Cpd 118, 4-[[5-amino-1-(2,6-difluorobenzoyl)-1H-1,2,4-triazol-3-yl]amino]-N-(2-pyridinyl)-benzenesulfonamide], the IC50 at CDK1:Cyclin-B (setting [3]) was 330 nM; at CDK1:Cyclin-B (Table 1), 330 nM; in test [1] (setting [3]) it was 397 nM; in test [1] (Table 1), 397 nM; in test [2] (setting [4]), above 10000 nM; in test [2] (Table 1, read-out: HER2 IC50), above 10000 nM.
